From patent US20090012052A1, “METHOD FOR TREATING ER+ BREAST CANCER” (Ore Pharmaceuticals Inc., priority 2006, published 2009)
“Also recorded” adds a separate entry of the source.

Tests used:
[1] = system: ER; details: T47D (ER+, PR+) cells; cited from earlier work
[2] = system: PR; details: T47D (ER+, PR+) cells; cited from earlier work
[3] = system: T47D cells; details: cited from earlier work
[4] = system: T47D (human ER+ breast cancer cell line) xenografts; experiment: Growth of ER+ breast cancer cell line (T47D) xenografts in mice; type: in vivo; details: NODscid mice with estrogen pellet; p.o. once daily 3-5 weeks; candesartan cilexetil 10/30/100, irbesartan 30/100/300, tamoxifen 0.1/0.3/1.0 mg/kg
Experimental: Female NODscid mice of age 5-6 weeks received a subcutaneous estrogen pellet implant (1.7 mg). Twenty four hours after estrogen pellet implantation, the mice received tumor implantation by subcutaneous injection of T47D cells to the flank (approximately 2.5×10^6 cells/mouse). The mice were ear-notched for identification and housed 4 animals per cage. The tumor implantation site was palpated up to 3 times weekly to monitor tumor growth. One hundred animals in which tumor implantation was successful (7-12 days after injection) were randomized to ten treatment groups, 10 animals per group:
Tumors were measured 3 times weekly using digital calipers. Body weight was measured twice weekly. Clinical observations were conducted weekly. At the conclusion of the study or when mice attained a maximum tumor burden of about 3.0 cm^3 or about 10% of body weight, the mice were sacrificed, tumors were harvested and a terminal blood sample was collected.

[5] = system: T47D cells; experiment: Cell proliferation assay (RT-CES impedance), ER+ cell line T47D; type: cell-based, human; details: for Effect on Ang II-induced growth / Effect on Ang II-induced cell proliferation: T47D
Experimental: (§1) Unless otherwise indicated, cell proliferation assays described in Examples 2-5 were performed using a Real-Time Cell Electronic Sensing (RT-CES™ 96×) instrument from ACEA Bioscience (San Diego, Calif.). This instrument utilizes an electronic readout (impedance) to non-invasively quantify adherent cell proliferation and viability in real time.
(§2) Cells were seeded in 96-well microtiter plates containing microelectronic sensor arrays (96E plates; ACEA). Cells were maintained in RPMI 1640 (Invitrogen, Carlsbad, Calif.) supplemented with 10% fetal bovine serum (FBS) (Hyclone, Logan, Utah) and were cultured at 37° C. in a humidified atmosphere containing 5% CO2. For proliferation assays, cells were seeded (20,000 cells/well), allowed to attach and grown overnight in standard growth medium. Cells were then serum-starved for 8 hours prior to the proliferation assay in presence or absence of test compound(s). The proliferation response was continuously monitored by measuring the impedance change in each well for the indicated number of hours. Data are expressed as cell index (CI) change relative to time in culture, reflecting measured changes in electrical impedance. Each value shown is an average of 6 wells. Where shown, statistical analysis was performed by calculation of standard deviation and P values were generated by a Student's two-tailed t-test.
(§3) T47D (American Type Culture Collection, Manassas, Va. (ATCC) cat. HTB-133) is an ER+ cell line derived from human mammary gland ductal carcinoma. Other ER+ cell lines used in studies reported herein include ZR-75 and HCC70. HCC1143 (ATCC cat. CRL-2321) is an ER− cell line also derived from human mammary gland ductal carcinoma.
(§4) Following the 8 hour starvation phase, either Ang II (Sigma-Aldrich), 500 nM, or vehicle control was added to the cell culture. […] Ang II also stimulated proliferation of ER+ cell lines HCC70, by approximately 30%, and ZR-75, by approximately 35%, relative to vehicle control (data not shown).
(§5) A cell proliferation assay procedure was followed as described in Example 2. Following the 8 hour starvation phase, either Ang II (Sigma-Aldrich), 500 nM, with or without the AT1 receptor antagonist telmisartan, 1.25 μM or 5 μM, or vehicle control was added to the cell culture.
(§6) A cell proliferation assay procedure was followed as described in Example 2. Following the 8 hour starvation phase, either Ang II (Sigma-Aldrich), 500 nM, with or without the AT1 receptor antagonist candesartan, 5 μM, or vehicle control was added to the cell culture.
(§7) A cell proliferation assay procedure was followed as described in Example 2. Following the 8 hour starvation phase, either Ang II (Sigma-Aldrich), 500 nM, with or without the AT1 receptor antagonist irbesartan, 5 μM, or vehicle control was added to the cell culture.
A cell proliferation assay was conducted by a procedure substantially as described in Example 2, using the ER+ human breast cancer cell line T47D. Following an eight-hour serum starvation phase, test substance was added to the cell culture to provide each of the following treatments: […]

[6] = system: HCC1143 cells; experiment: Cell proliferation assay (RT-CES impedance), ER- cell line HCC1143; type: cell-based, human; details: for Effect on cell proliferation: HCC1143
Experimental: as §1, §2, §3, §4, §5, §6, §7

[7] = system: cells cultured from invasive ductal carcinomas; details: cited from earlier work
[8] = system: breast cancer epithelial cell line MCF-7; details: cited from earlier work
[9] = administered for 5 years; women having risk factors; cited from earlier work
[10] = system: HCC70 cells; experiment: Cell proliferation assay (RT-CES impedance), ER+ cell line HCC70; type: cell-based, human
Experimental: as §1
as §2, with “t-test. […]” for “t-test.”

[11] = system: ZR-75 cells; experiment: Cell proliferation assay (RT-CES impedance), ER+ cell line ZR-75; type: cell-based, human
Experimental: as §1
as §2, with “t-test. […]” for “t-test.”

[12] = system: HCC1395 cells; experiment: Cell proliferation assay (RT-CES impedance), cell line HCC1395; type: cell-based, human
Experimental: as §1
as §2, with “t-test. […]” for “t-test.”

[13] = system: HCC1954 cells; experiment: Cell proliferation assay (RT-CES impedance), cell line HCC1954; type: cell-based, human
Experimental: as §1
as §2, with “t-test. […]” for “t-test.”

[14] = system: HCC1937 cells; experiment: Cell proliferation assay (RT-CES impedance), cell line HCC1937; type: cell-based, human
Experimental: as §1
as §2, with “t-test. […]” for “t-test.”

[15] = system: HCC38 cells; experiment: Cell proliferation assay (RT-CES impedance), cell line HCC38; type: cell-based, human
Experimental: as §1
as §2, with “t-test. […]” for “t-test.”

[16] = system: T47D cell line; details: cited from earlier work
[17] = Ang II 500 nM with AT1 receptor antagonist 5 μM
[18] = Ang II 500 nM with AT1 receptor antagonist 5 μM, data not shown
[19] = Ang II 500 nM with telmisartan 1.25 μM or 5 μM

Compound: C[C@H](CS)C(=O)N1CCC[C@H]1C(=O)O [Captopril]
- ER protein concentration [1]: reduced
- PR protein concentration [2]: increased
- [3H]thymidine incorporation (an index of cell proliferation) [3]: inhibited

Compound: CCOc1nc2cccc(C(=O)OC(C)OC(=O)OC3CCCCC3)c2n1Cc1ccc(-c2ccccc2-c2nnn[nH]2)cc1 (centres unmarked) [candesartan cilexetil]
- Growth in tumor volume [4]: reduced in a dose-dependent fashion

Compound: CCOc1nc2cccc(C(=O)O)c2n1Cc1ccc(-c2ccccc2-c2nnn[nH]2)cc1 [candesartan, 2-ethoxy-1-[4-[2-(1H-tetrazol-5-yl)phenyl]benzyl]-7-benzimidazole-carboxylic acid]
- Effect on Ang II-induced growth [5, 17]: significantly inhibited
- Effect on cell proliferation [6, 18]: No effects

Compound: CCCCC1=NC2(CCCC2)C(=O)N1Cc1ccc(-c2ccccc2-c2nnn[nH]2)cc1 [irbesartan, 2-n-butyl-4-spirocyclopentane-1-[(2′-(tetrazol-5-yl)bipheny-4-yl)methyl]-2-imidazolin-5-one]
- Effect on Ang II-induced growth [5, 17]: significantly inhibited
- Effect on Ang II-induced cell proliferation ([5]; irbesartan 5 μM + Ang II 500 nM): reversed the Ang II effect
- Effect on cell proliferation [6, 18]: No effects
- Growth in tumor volume [4]: the lowest dose tested (30 mg/kg) appeared to give the greatest effect

Compound: NCCCC[C@H](N[C@@H](CCc1ccccc1)C(=O)O)C(=O)N1CCC[C@H]1C(=O)O [lisinopril]
- ER protein concentration [1]: No such effects
- PR protein concentration [2]: No such effects
- [3H]thymidine incorporation (an index of cell proliferation) [3]: No such effects

Compound: CCCCc1nc(Cl)c(CO)n1Cc1ccc(-c2ccccc2-c2nnn[nH]2)cc1 [losartan, 2-n-butyl-4-chloro-5-hydroxymethyl-1-[[2′-(1H-tetrazol-5-yl)biphenyl-4-yl]methyl]imidazole]
- Effect on Ang II-stimulated proliferation [7]: blocked
- Effect on Ang II proliferative effect [8]: blocked

Compound: CC/C(=C(\c1ccccc1)c1ccc(OCCN(C)C)cc1)c1ccccc1 [tamoxifen]
- Effect on Ang II-induced cell proliferation ([5]; tamoxifen 7.5 μM + Ang II 500 nM): reduced cell proliferation to a level lower than that of vehicle control
- Growth in tumor volume [4]: reduced in a dose-dependent fashion
- Reduction of incidence of invasive breast cancer [9]: ~50%

Compound: CCCc1nc2c(C)cc(-c3nc4ccccc4n3C)cc2n1Cc1ccc(-c2ccccc2C(=O)O)cc1 [telmisartan, 4′-[[4-methyl-6-(1-methyl-2-benzimidazolyl)-2-propyl-1-benzimidazol-yl]methyl]-2-biphenylcarboxylic acid]
- Effect on Ang II-induced growth [5, 19]: significantly inhibited
- Effect on cell proliferation [6, 19]: No effects

Compound: Ang II: peptide angiotensin II, a major regulator of blood pressure and cardiovascular homeostasis (Sigma-Aldrich) (DRVYIHPF; Angiotensin-2; UniProt P01019 25-32, looked up)
- Effect of Ang II on cell growth/proliferation ([5]; T47D (ER+), Ang II 500 nM vs vehicle control, after 8 h serum starvation): significantly stimulated growth; also recorded: substantial increase in cell proliferation
- Ang II proliferation response ([5]; cell line T47D): positive
- Effect of Ang II on cell growth/proliferation ([6]; HCC1143 (ER-), Ang II 500 nM vs vehicle control): No effects
- Ang II proliferation response ([6]; cell line HCC1143): negative
- Stimulation of proliferation relative to vehicle control ([10]; HCC70 (ER+), Ang II 500 nM, data not shown): approximately 30%
- Ang II proliferation response ([10]; cell line HCC70): positive
- Stimulation of proliferation relative to vehicle control ([11]; ZR-75 (ER+), Ang II 500 nM, data not shown): approximately 35%
- Ang II proliferation response ([11]; cell line ZR-75): positive
- Ang II proliferation response [12]: negative
- Ang II proliferation response [13]: negative
- Ang II proliferation response [14]: negative
- Ang II proliferation response [15]: negative
- Stimulation of cell growth by Ang II [16]: significant stimulation of cell growth
- Proliferation stimulated by Ang II ([7]; ER and PR positive): stimulated in a dose-dependent manner
- Proliferative effect of Ang II [8]: dose-dependent proliferative effect
